Some results are limits rather than exact numbers.

Usually IC50 stands for the midpoint of a concentration-inhibition curve.

The test system of one assay is Kuramochi cells. As to the kind of experiment: BrdU Cell Proliferation Assay. It counts as cell-based. To be noted: read-out: BrdU - KURAMOCHI.1: IC50. Summed up: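 Signal is 450 nm absorbance from a peroxidase anti-BrdU ELISA after a 1-hour BrdU label, background-subtracted and normalized to DMSO-treated wells. Kuramochi cells (2,000 per well) had been exposed to compound for 4 days. Dosing used a 10-point dose response in 3-fold steps.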

Assay [1] deals with Kuramochi cells labeled with mApple-H2B. The assay can be described thus: IncuCyte Cell Proliferation Assay. Particulars: 72 h. In kind it is cell-based. In a few lines:
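GI50 came from dose-response fits of cell-count fold change between 0 and 72 h, normalized to DMSO controls. Counts were fluorescent nuclei from live-cell images over a 10-point, ½ log series starting at 20 μM.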

For `C[C@@H](OCC1CCCCC1)[C@H](NC(=O)[C@@H]1CN(C(=O)c2cnn(Cc3ccccc3)c2)CC12CN(C(=O)[C@H]1CC1(C)C)C2)C(=O)N1CC[C@@H]1CN` [I-270], the IC50 in the assay on Kuramochi cells is over 10 µM; in assay [1], 5 to 20 µM.
As for `C[C@@H](OCC1CCCCC1)[C@@H](COC1CCC(F)(F)CC1)NC(=O)[C@@H]1CN(C(=O)c2cnn(Cc3ccccc3)c2)CC12CN(C(=O)[C@H]1CC1(C)C)C2` [I-271], the IC50 (in the assay on Kuramochi cells; in assay [1]) was at most 0.5 µM each time.
For `CNC(=O)[C@@H](NC(=O)[C@@H]1CN(C(=O)c2cnn(Cc3ccccc3)c2)CC12CN(C(=O)[C@H]1CC1(C)C)C2)[C@@H](C)N(CC1CCCCC1)C(C)=O` [I-273, (S)-6-(1-benzyl-1H-pyrazole-4-carbonyl)-N-((2S,3R)-3-(N-(cyclohexylmethyl)acetamido)-1-(methylamino)-1-oxobutan-2-yl)-2-((S)-2,2-dimethylcyclopropane-1-carbonyl)-2,6-diazaspiro[3.4]octane-8-carboxamide], the figures for the IC50 (with Kuramochi cells; in assay [1]) were over 10 µM and over 20 µM, respectively.
On the same counts, the results for `CNC(=O)[C@@H](NC(=O)[C@@H]1CN(C(=O)c2cnn(Cc3ccccc3)c2)CC12CN(C(=O)N(C)C(C)C)C2)[C@@H](C)OCC1CCCCC1` [I-274, (S)-6-(1-benzyl-1H-pyrazole-4-carbonyl)-N8-((2S,3R)-3-(cyclohexylmethoxy)-1-(methylamino)-1-oxobutan-2-yl)-N2-isopropyl-N2-methyl-2,6-diazaspiro[3.4]octane-2,8-dicarboxamide] are 5 to 10 µM and 5 to 20 µM.
In the case of `C[C@H](OC1CCN(C(=O)[C@@H]2CN(C(=O)c3cnn(Cc4ccccc4)c3)CC23CN(C(=O)[C@H]2CC2(C)C)C3)CC1)c1ccccc1` [I-275], the IC50 was over 10 µM in the assay on Kuramochi cells and over 20 µM in assay [1].
Take `CNC(=O)[C@@H](NC(=O)[C@@H]1CN(C(=O)c2cnn(Cc3ccccc3)c2)CC12CN(C(=O)C(C)(C)C1CC1)C2)[C@@H](C)OCc1ccccc1` [I-276]: the IC50 with Kuramochi cells is over 10 µM; in assay [1], over 20 µM.
The like results for `CNC(=O)[C@@H](NC(=O)[C@@H]1CN(C(=O)c2cnn(Cc3ccccc3)c2)CC12CN(C(=O)C(C)C1CC1)C2)[C@@H](C)OCc1ccccc1` (stereo partly drawn) [I-277] were, in that order, over 10 µM and over 20 µM.
On the same counts, the results for `Cc1ccc2[nH]c(CNC(=O)C3CN(C(=O)c4cnn(Cc5ccccc5)c4)CC34CN(C(=O)[C@H]3CC3(C)C)C4)nc2c1` (stereo partly drawn) [I-278] are over 10 µM and over 20 µM.
The like results for `CNC(=O)[C@@H](NC(=O)[C@@H]1CN(C(=O)c2cncs2)CC12CN(C(=O)[C@H]1CC1(C)C)C2)[C@@H](C)OC(C)C1CCCCC1` (stereo partly drawn) [I-279] were, in that order, 0.5 to 5 µM and 0.5 to 5 µM.
Turning to `C[C@@H](OCc1ccccc1)[C@H](NC(=O)[C@@H]1CN(C(=O)c2cnn(Cc3ccccc3)c2)CC12CN(C(=O)[C@H]1CC1(C)C)C2)C(=O)N1CCC(F)(F)CC1` [I-280], the IC50 (in the assay with Kuramochi cells; in assay [1]) was 0.5 to 5 µM each time.
Take `C[C@@H](OCC1CCCCC1)[C@H](NC(=O)[C@@H]1CN(C(=O)c2cnn(Cc3ccccc3)c2)CC12CN(C(=O)[C@H]1CC1(C)C)C2)C(C)(C)O` [I-281]: the IC50 in the assay with Kuramochi cells is 0.5 to 5 µM; in assay [1] it was at most 0.5 µM.
On the same counts, the results for `C[C@@H](OCC1CCCCC1)[C@@H](COCC1CCCCC1)NC(=O)[C@@H]1CN(C(=O)c2cncs2)CC12CN(C(=O)[C@H]1CC1(C)C)C2` [I-282] are at most 0.5 µM and at most 0.5 µM.
The like results for `COC[C@H]1CCCN(C(=O)[C@@H](NC(=O)[C@@H]2CN(C(=O)c3cnn(Cc4ccccc4)c3)CC23CN(C(=O)[C@H]2CC2(C)C)C3)[C@@H](C)OC)C1` [I-283] were, in that order, over 10 µM and over 20 µM.
On the same counts, the results for `CC(O[C@H](C)[C@H](NC(=O)[C@@H]1CN(C(=O)c2cncs2)CC12CN(C(=O)[C@H]1CC1(C)C)C2)C(=O)N1CCCCC1)C1CCCCC1` (stereo partly drawn) [I-284, (8S)—N-((2S,3R)-3-(1-cyclohexylethoxy)-1-oxo-1-(piperidin-1-yl)butan-2-yl)-2-((S)-2,2-dimethylcyclopropane-1-carbonyl)-6-(thiazole-5-carbonyl)-2,6-diazaspiro[3.4]octane-8-carboxamide] are 0.5 to 5 µM and 0.5 to 5 µM.
For `CC1(C)C[C@@H]1C(=O)N1CC2(CN(C(=O)c3cncs3)C[C@H]2C(=O)N[C@@H](COCC2CCCCC2)C(=O)N2CCCCC2)C1` [I-286], the IC50 (in the assay with Kuramochi cells; in assay [1]) was 0.5 to 5 µM throughout.
Consider `C[C@@H](OCC1(C(F)(F)F)CC1)[C@H](NC(=O)[C@@H]1CN(C(=O)c2cncs2)CC12CN(C(=O)[C@H]1CC1(C)C)C2)C(=O)N1CCC(F)(F)CC1` [I-287], for which the IC50 was over 10 µM with Kuramochi cells and 5 to 20 µM in assay [1].
The like results for `C[C@@H](OCC1CCOCC1)[C@H](NC(=O)[C@@H]1CN(C(=O)c2cncs2)CC12CN(C(=O)[C@H]1CC1(C)C)C2)C(=O)N1CCC(F)(F)CC1` [I-288] were, in that order, over 10 µM and 5 to 20 µM.
For `CNC(=O)[C@@H](NC(=O)[C@@H]1CN(C(=O)c2cncs2)CC12CN(C(=O)[C@H]1CC1(C)C)C2)[C@@H](C)OCC12CCC(CC1)CC2` [I-289], the IC50 (in the assay on Kuramochi cells; in assay [1]) was at most 0.5 µM each time.
Take `CNC(=O)[C@@H](NC(=O)[C@@H]1CN(C(=O)c2cncs2)CC12CN(C(=O)[C@H]1CC1(C)C)C2)[C@@H](C)OC1CCCCC1` [I-290]: the half-maximal inhibitory concentration (IC50) in the assay on Kuramochi cells is over 10 µM; in assay [1] it was 5 to 20 µM.
On the same counts, the results for `CC1(C)C[C@@H]1C(=O)N1CC2(CN(C(=O)c3cncs3)C[C@@H]2C(=O)N[C@@H](COCC2CCCCC2)C(=O)N2CCCCC2)C1` [I-293] are over 10 µM and over 20 µM.
The like results for `CNC(=O)[C@@H](NC(=O)[C@@H]1CN(C(=O)c2cnn(Cc3ccccc3)c2)CC12CN(CC(=O)O)C2)[C@@H](C)OCC1CCCCC1` [I-294, 2-((S)-6-(1-benzyl-1H-pyrazole-4-carbonyl)-8-(((2S,3R)-3-(cyclohexylmethoxy)-1-(methylamino)-1-oxobutan-2-yl)carbamoyl)-2,6-diazaspiro[3.4]octan-2-yl)acetic acid] were, in that order, over 10 µM and over 20 µM.
The like results for `CNC(=O)[C@@H](NC(=O)[C@@H]1CN(C(=O)c2cnn(Cc3ccccc3)c2)CC12CN(C(=O)N(C)C1CC1)C2)[C@@H](C)OCC1CCCCC1` [I-295] were, in that order, 5 to 10 µM and 5 to 20 µM.
As for `C[C@@H](OCC1CCCCC1)[C@H](NC(=O)[C@@H]1CN(C(=O)c2cncs2)CC12CN(C(=O)[C@H]1CC1(F)F)C2)C(=O)N1CCCCC1` [I-296], the IC50 (with Kuramochi cells; in assay [1]) was 0.5 to 5 µM each time.
In the case of `CNC(=O)C(NC(=O)[C@@H]1CN(C(=O)c2cn[nH]c2)CC12CN(C(=O)[C@H]1CC1(C)C)C2)C(O)Cc1ccccc1` (stereo partly drawn) [I-298], the IC50 with Kuramochi cells was over 10 µM; in assay [1], over 20 µM.
With `CNC(=O)[C@@H](NC(=O)[C@@H]1CN(C(=O)c2cnn(Cc3ccccc3)c2)CC12CN(C(=O)[C@H]1CC1(C)C)C2)[C@@H](C)OCC12CC(C(=O)OC)(C1)C2` [I-299], the IC50 in the assay on Kuramochi cells is over 10 µM; in assay [1], over 20 µM.
On the same counts, the results for `C[C@@H](OCC1CCC(F)(F)CC1)[C@H](NC(=O)[C@@H]1CN(C(=O)c2cn[nH]c2)CC12CN(C(=O)C1(C(F)(F)F)CC1)C2)C(=O)N1CCOCC1` [I-302] are over 10 µM and over 20 µM.
The like results for `C[C@@H](OCC12CCC(CC1)CC2)[C@H](NC(=O)[C@@H]1CN(C(=O)c2cncs2)CC12CN(C(=O)[C@H]1CC1(C)C)C2)C(C)(C)O` [I-304] were, in that order, 0.5 to 5 µM and 0.5 to 5 µM.
For `CO[C@H](C)[C@H](NC(=O)[C@@H]1CN(C(=O)c2cnn(Cc3ccccc3)c2)CC12CN(C(=O)[C@H]1CC1(C)C)C2)C(=O)N1CCC(CN)CC1` [I-306], the IC50 in the assay on Kuramochi cells is over 10 µM; in assay [1], over 20 µM.
The like results for `C[C@@H](OCC1CCCCC1)[C@@H](CO)NC(=O)[C@@H]1CN(C(=O)c2cncs2)CC12CN(C(=O)[C@H]1CC1(C)C)C2` [I-307] were, in that order, 0.5 to 5 µM and 0.5 to 5 µM.
The like results for `C[C@@H](OCC1CCCCC1)[C@@H](COC1CCCCC1)NC(=O)[C@@H]1CN(C(=O)c2cncs2)CC12CN(C(=O)[C@H]1CC1(C)C)C2` [I-308] were, in that order, at most 0.5 µM and 0.5 to 5 µM.
Turning to `C[C@@H](OCC1CCCCC1)[C@@H](COC(F)(F)F)NC(=O)[C@@H]1CN(C(=O)c2cnn(Cc3ccccc3)c2)CC12CN(C(=O)[C@H]1CC1(C)C)C2` [I-309], the IC50 (with Kuramochi cells; in assay [1]) was 0.5 to 5 µM throughout.
On to `Cc1cc(C(=O)N2CC(C(=O)N[C@H](C(=O)N3CCCCC3)[C@@H](C)OCC3CCCCC3)C3(C2)CN(C(=O)[C@H]2CC2(C)C)C3)sn1` (stereo partly drawn) [I-311], for which the IC50 (in the assay on Kuramochi cells; in assay [1]) was at most 0.5 µM throughout.
Regarding `COC[C@H]1CCCN(C(=O)[C@@H](NC(=O)[C@@H]2CN(C(=O)c3cncs3)CC23CN(C(=O)[C@H]2CC2(C)C)C3)[C@@H](C)OCc2ccc(Cl)cc2F)C1` [I-317], the IC50 (in the assay with Kuramochi cells; in assay [1]) was 0.5 to 5 µM in each case.
Regarding `COC[C@H]1CCCN(C(=O)[C@@H](NC(=O)[C@@H]2CN(C(=O)c3cncs3)CC23CN(C(=O)[C@H]2CC2(C)C)C3)[C@@H](C)OCc2ccc(F)cc2)C1` [I-318], the IC50 (with Kuramochi cells; in assay [1]) was 0.5 to 5 µM each time.
Take `COC[C@H]1CCCN(C(=O)[C@@H](NC(=O)[C@@H]2CN(C(=O)c3cncs3)CC23CN(C(=O)[C@H]2CC2(C)C)C3)[C@@H](C)OCc2ccc(C(F)(F)F)cc2)C1` [I-319]: the IC50 is at most 0.5 µM in the assay on Kuramochi cells and 0.5 to 5 µM in assay [1].
The like results for `COC[C@H]1CCCN(C(=O)[C@@H](NC(=O)[C@@H]2CN(C(=O)c3cncs3)CC23CN(C(=O)[C@H]2CC2(C)C)C3)[C@@H](C)OCc2ccccc2F)C1` [I-321] were, in that order, 0.5 to 5 µM and 0.5 to 5 µM.

Source of the values: patent publication US12065445B2, “CDK2 inhibitors and methods of using the same” (Cedilla Therapeutics, Inc., priority 2021, dated 2024).
